From patent US20120017924A1 (priority 2001, published 2012)
Like-named read-outs stand apart in the source and are kept apart here.

Legend:
adult = settings: Merck Index; cited from earlier work
[1] = smoking a cigarette; cited from earlier work
[2] = From the text: Absorption of nicotine from the oral cavity to the systemic circulation is dependent on the pH of the saliva, pH of the blood plasma and the pKa of nicotine, which is about 7.8. Assuming a pH of the plasma of 7.4 and of the saliva of 6.8 only about 10% of the nicotine will be in the free base form. Thus, in order to promote absorption of nicotine in a free base form, which is the form predominantly absorbed through the mucosa, the pH of the saliva must be increased. At a pH of 8.8 about 90% of the nicotine will then be in the free base form.

CN1CCCC1c1cccnc1 (stereo not shown) [nicotine, 3-(1-methyl-2-pyrrolidinyl)-pyridine]
amount of nicotine able to kill an adult (adult): Approximately forty
time for nicotine to reach the brain after inhalation [1]: ten
nicotine in the free base form ([2]; assuming pH of plasma 7.4 and of saliva 6.8): about 10%
nicotine in the free base form ([2]; at a pH of 8.8): about 90%
